{"source": "PubChem BioAssay (NCI)", "experiment_in_all_cases": "NCI anticancer screen, dose series, 48 h", "key": {"RPMI-8226 leukemia": {"system": "RPMI-8226 leukemia"}, "HCT-15 colon": {"system": "HCT-15 colon"}, "HS 578T breast": {"system": "HS 578T breast"}, "U251 CNS": {"system": "U251 CNS"}, "HT29 colon": {"system": "HT29 colon"}, "T-47D breast": {"system": "T-47D breast"}, "SF-268 CNS": {"system": "SF-268 CNS"}, "SK-MEL-2 melanoma": {"system": "SK-MEL-2 melanoma"}, "BT-549 breast": {"system": "BT-549 breast"}, "DU-145 prostate": {"system": "DU-145 prostate"}, "HOP-62 NSCLC": {"system": "HOP-62 NSCLC"}, "UACC-257 melanoma": {"system": "UACC-257 melanoma"}, "A549 NSCLC": {"system": "A549 NSCLC"}, "MDA-MB-231 breast": {"system": "MDA-MB-231 breast"}, "LOX IMVI melanoma": {"system": "LOX IMVI melanoma"}, "786-0 renal": {"system": "786-0 renal"}, "OVCAR-4 ovarian": {"system": "OVCAR-4 ovarian"}, "SNB-75 CNS": {"system": "SNB-75 CNS"}, "OVCAR-3 ovarian": {"system": "OVCAR-3 ovarian"}, "NCI-H522 lung": {"system": "NCI-H522 lung"}, "SF-295 CNS": {"system": "SF-295 CNS"}, "PC-3 prostate": {"system": "PC-3 prostate"}, "KM12 colon": {"system": "KM12 colon"}, "CAKI-1 renal": {"system": "CAKI-1 renal"}, "COLO 205 colon": {"system": "COLO 205 colon"}, "SNB-19 CNS": {"system": "SNB-19 CNS"}, "TK-10 renal": {"system": "TK-10 renal"}, "MDA-MB-435": {"system": "MDA-MB-435"}, "OVCAR-5 ovarian": {"system": "OVCAR-5 ovarian"}, "NCI/ADR-RES ovarian": {"system": "NCI/ADR-RES ovarian"}, "IGROV1 ovarian": {"system": "IGROV1 ovarian"}, "MDA-N": {"system": "MDA-N"}, "SK-MEL-5 melanoma": {"system": "SK-MEL-5 melanoma"}, "SK-OV-3 ovarian": {"system": "SK-OV-3 ovarian"}, "NCI-H460 lung": {"system": "NCI-H460 lung"}, "UACC-62 melanoma": {"system": "UACC-62 melanoma"}, "ACHN renal": {"system": "ACHN renal"}, "MOLT-4 leukemia": {"system": "MOLT-4 leukemia"}, "M14 melanoma": {"system": "M14 melanoma"}, "HOP-92 NSCLC": {"system": "HOP-92 NSCLC"}, "NCI-H23 lung": {"system": "NCI-H23 lung"}, "RXF 393 renal": {"system": "RXF 393 renal"}, "SW-620 colon": {"system": "SW-620 colon"}, "CCRF-CEM leukemia": {"system": "CCRF-CEM leukemia"}, "MALME-3M melanoma": {"system": "MALME-3M melanoma"}, "A498 renal": {"system": "A498 renal"}, "NCI-H226 lung": {"system": "NCI-H226 lung"}, "K-562 leukemia": {"system": "K-562 leukemia"}, "SK-MEL-28 melanoma": {"system": "SK-MEL-28 melanoma"}, "EKVX NSCLC": {"system": "EKVX NSCLC"}, "UO-31 renal": {"system": "UO-31 renal"}, "SN12C renal": {"system": "SN12C renal"}, "HCT-116 colon": {"system": "HCT-116 colon"}, "OVCAR-8 ovarian": {"system": "OVCAR-8 ovarian"}, "MCF7 breast": {"system": "MCF7 breast"}, "SR leukemia": {"system": "SR leukemia"}}, "note": "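96-well plates; 48 h exposure; 5 concentrations. Endpoints by linear interpolation between flanking doses. Not reached: highest tested concentration assigned. TGI denotes the concentration required for complete inhibition of growth.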", "data": [{"smiles": "CN(C(=O)Nc1ccc(Cl)c(Cl)c1)C1CCCC[C@@H]1N1CCCC1", "note": "(stereo partly specified)", "values": [{"measurement": "TGI", "setting": "RPMI-8226 leukemia", "result": 64.1, "unit": "µM"}, {"measurement": "TGI", "setting": "HCT-15 colon", "result": "> 100", "unit": "µM"}, {"measurement": "TGI", "setting": "HS 578T breast", "result": 73.9, "unit": "µM"}, {"measurement": "TGI", "setting": "U251 CNS", "result": "> 100", "unit": "µM"}, {"measurement": "TGI", "setting": "HT29 colon", "result": "> 100", "unit": "µM"}, {"measurement": "TGI", "setting": "T-47D breast", "result": "> 100", "unit": "µM"}, {"measurement": "TGI", "setting": "SF-268 CNS", "result": 94.7, "unit": "µM"}, {"measurement": "TGI", "setting": "SK-MEL-2 melanoma", "result": "> 100", "unit": "µM"}, {"measurement": "TGI", "setting": "BT-549 breast", "result": "> 100", "unit": "µM"}, {"measurement": "TGI", "setting": "DU-145 prostate", "result": "> 100", "unit": "µM"}, {"measurement": "TGI", "setting": "HOP-62 NSCLC", "result": "> 100", "unit": "µM"}, {"measurement": "TGI", "setting": "UACC-257 melanoma", "result": 39.4, "unit": "µM"}, {"measurement": "TGI", "setting": "A549 NSCLC", "result": "> 100", "unit": "µM"}, {"measurement": "TGI", "setting": "MDA-MB-231 breast", "result": "> 100", "unit": "µM"}, {"measurement": "TGI", "setting": "LOX IMVI melanoma", "result": "> 100", "unit": "µM"}, {"measurement": "TGI", "setting": "786-0 renal", "result": "> 100", "unit": "µM"}, {"measurement": "TGI", "setting": "OVCAR-4 ovarian", "result": "> 100", "unit": "µM"}, {"measurement": "TGI", "setting": "SNB-75 CNS", "result": "> 100", "unit": "µM"}, {"measurement": "TGI", "setting": "OVCAR-3 ovarian", "result": "> 100", "unit": "µM"}, {"measurement": "TGI", "setting": "NCI-H522 lung", "result": "> 100", "unit": "µM"}, {"measurement": "TGI", "setting": "SF-295 CNS", "result": "> 100", "unit": "µM"}, {"measurement": "TGI", "setting": "PC-3 prostate", "result": "> 100", "unit": "µM"}, {"measurement": "TGI", "setting": "KM12 colon", "result": "> 100", "unit": "µM"}, {"measurement": "TGI", "setting": "CAKI-1 renal", "result": "> 100", "unit": "µM"}, {"measurement": "TGI", "setting": "COLO 205 colon", "result": 35.7, "unit": "µM"}, {"measurement": "TGI", "setting": "SNB-19 CNS", "result": "> 100", "unit": "µM"}, {"measurement": "TGI", "setting": "TK-10 renal", "result": "> 100", "unit": "µM"}, {"measurement": "TGI", "setting": "MDA-MB-435", "result": "> 100", "unit": "µM"}, {"measurement": "TGI", "setting": "OVCAR-5 ovarian", "result": "> 100", "unit": "µM"}, {"measurement": "TGI", "setting": "NCI/ADR-RES ovarian", "result": "> 100", "unit": "µM"}, {"measurement": "TGI", "setting": "IGROV1 ovarian", "result": "> 100", "unit": "µM"}, {"measurement": "TGI", "setting": "MDA-N", "result": "> 100", "unit": "µM"}, {"measurement": "TGI", "setting": "SK-MEL-5 melanoma", "result": 30.6, "unit": "µM"}, {"measurement": "TGI", "setting": "SK-OV-3 ovarian", "result": "> 100", "unit": "µM"}, {"measurement": "TGI", "setting": "NCI-H460 lung", "result": "> 100", "unit": "µM"}, {"measurement": "TGI", "setting": "UACC-62 melanoma", "result": 40.2, "unit": "µM"}, {"measurement": "TGI", "setting": "ACHN renal", "result": "> 100", "unit": "µM"}, {"measurement": "TGI", "setting": "MOLT-4 leukemia", "result": 96.8, "unit": "µM"}, {"measurement": "TGI", "setting": "M14 melanoma", "result": 36.1, "unit": "µM"}, {"measurement": "TGI", "setting": "HOP-92 NSCLC", "result": "> 100", "unit": "µM"}, {"measurement": "TGI", "setting": "NCI-H23 lung", "result": "> 100", "unit": "µM"}, {"measurement": "TGI", "setting": "RXF 393 renal", "result": "> 100", "unit": "µM"}, {"measurement": "TGI", "setting": "SW-620 colon", "result": "> 100", "unit": "µM"}, {"measurement": "TGI", "setting": "CCRF-CEM leukemia", "result": "> 100", "unit": "µM"}, {"measurement": "TGI", "setting": "MALME-3M melanoma", "result": 37.8, "unit": "µM"}, {"measurement": "TGI", "setting": "A498 renal", "result": 55.9, "unit": "µM"}, {"measurement": "TGI", "setting": "NCI-H226 lung", "result": 39.5, "unit": "µM"}, {"measurement": "TGI", "setting": "K-562 leukemia", "result": "> 100", "unit": "µM"}, {"measurement": "TGI", "setting": "SK-MEL-28 melanoma", "result": 47.6, "unit": "µM"}, {"measurement": "TGI", "setting": "EKVX NSCLC", "result": "> 100", "unit": "µM"}, {"measurement": "TGI", "setting": "UO-31 renal", "result": 84.2, "unit": "µM"}, {"measurement": "TGI", "setting": "SN12C renal", "result": "> 100", "unit": "µM"}, {"measurement": "TGI", "setting": "HCT-116 colon", "result": "> 100", "unit": "µM"}, {"measurement": "TGI", "setting": "OVCAR-8 ovarian", "result": "> 100", "unit": "µM"}, {"measurement": "TGI", "setting": "MCF7 breast", "result": 87.4, "unit": "µM"}, {"measurement": "TGI", "setting": "SR leukemia", "result": "> 100", "unit": "µM"}]}]}
